The test deals with HCV genotype 1b strain Con1 replicon (ET replicon line, Huh7 cells). As to the kind of experiment: HCV ET replicon luciferase assay. Type of test: cell-based. To be noted: Hepatitis C virus, Huh-7; ET replicon line (Huh7 cells, HCV genotype 1b Con1 replicon), luciferase read-out, 72 hours; compounds in free or salt form. Here is the method:
Compounds of the current invention are believed useful in the treatment and/or prophylaxis of conditions and diseases associated with HcV infection. Activity mediated through HCV was determined using an ET replicon line.
The Materials used include a Medium comprised of DMEM (1× liquid, high glucose); Invitrogen cat# 11965-092; 100×Penicillin/Streptomycin solution (10,000 Units/mL); Invitrogen cat# 15140-122; 100×Non-essential amino acid solution (10 mM); Invitrogen cat# 11140-050; Fetal bovine serum; JRH Biosciences cat# 12107-500M; Geneticin (50 mg/mL); Invitrogen cat# 10131-035
The Luciferase assay reagents include Steady-Glo Luciferase assay system, cat# E2550 (Promega)
The ET replicon line (see Lohmann et al. (1999), Replication of subgenomic hepatitis C virus RNAs in a hepatoma cell line. Science 285:110-113; Krieger et al. (2001), Enhancement of hepatitis C virus RNA replication by cell culture-adaptive mutations. J. Virol. 75: 4614-4624; and Vrolijk et al. (2003), A replicon-based bioassay for the measurement of interferons in patients with chronic hepatitis C. J. Virol. Meth. 110: 201-209, each herein incorporated by reference with regard to the ET replicon line), includes Huh7 cells stably transfected with HCV genotype 1b strain Con1 replicon. This replicon expresses the firefly luciferase, has the coding region for ubiquitin inserted upstream of the neomycin gene, and carries three cell culture-adaptive mutations that enhance RNA replication cooperatively (E1202G, T1280I, and S2197P). The ET cell line was obtained under license from: ReBLikon GmbH, Nach dem alten Schloss 22, 55239 Gau-Odernheim, Germany.
Cells are maintained at 37° C., 5% CO2, in DMEM with 10% FCS, 1× penicillin/streptomycin, 1× non-essential amino acids, 0.5 mg/mL Geneticin. For passage, cells are washed once with PBS, and incubated at 37° C. with sufficient trypsin (0.05%)/versene to cover the monolayer. Once detached from the flask, cells are mixed with several mLs of DMEM+10% FBS to inactivate the trypsin, then diluted appropriately (usually 1 in 5 or 1 in 10) with sufficient medium to pass to a new flask. For a T225 flask, 40-50 mLs total volume of cells+medium is typically used. To prevent the density dependent drop in replicon RNA, the ET cell line is maintained at sub-confluent (60-80%) levels.
Compounds are diluted in DMSO across the first 10 wells of a Costar V-bottom 96-well plate using a Biomek 2000 Workstation (Beckman-Coulter), with 0.5 log10 dilution intervals. DMSO only is added to the last two columns of the plate. The top concentration of drug in this master plate is typically 2.5 mM. A 1/5 dilution of the compounds is made by adding DMEM+10% FBS with a multichannel pipettor, giving a top concentration of 500 μM. 5 μL of diluted compounds is transferred into black Costar flat bottom 96-well daughter plates using a RapidPlate workstation (Zymark).
Cells are grown to approximately 80% confluency and trypsinised as described above. Cells are counted in a Levy Hemocytometer and diluted to 20,000 cells/ml in DMEM containing 10% FBS, 1× penicillin/streptomycin, 1×NEAAs. (Note: Geneticin is omitted for the assay).
245 μL cell suspension is added to the first 11 columns of the daughter plates prepared as above using a Multidrop dispenser (Titertek). Thus, 5,000 cells are added per well, and the final top concentration of each compound is 10 μM. The twelfth column of each plate is used to generate background readings for the assay. […]

The term IC50 denotes the concentration at which inhibition is half-maximal.

Where a name gives a salt, the structure may show the parent alone.

Turning to `Brc1ccc2[nH]c3c(c2c1)CCCC3Nc1ccccn1` (centres unmarked) [Example 27, 6-Bromo-N-pyridin-2-yl-2,3,4,9-tetrahydro-1H-carbazol-1-amine Hydrochloride], the IC50 was determined as 8 nM. The value for `Clc1ccc2[nH]c3c(c2c1)CCCC3Nc1ccccc1` (centres unmarked) [Example 14, 6-Chloro-N-phenyl-2,3,4,9-tetrahydro-1H-carbazol-1-amine] was 5 nM; that for `Clc1ccc2[nH]c3c(c2c1)CCCC3Nc1ncccn1` (centres unmarked) [Example 23, 6-Chloro-N-pyrimidin-2-yl-2,3,4,9-tetrahydro-1H-carbazol-1-amine] was 52 nM.

For the molecule `Brc1ccc2[nH]c3c(c2c1)CCCC3Nc1ccccc1` (centres unmarked) [Example 13, 6-Bromo-N-Phenyl-2,3,4,9-tetrahydro-1H-carbazol-1-amine], the IC50 amounted to 10 nM.

With `Brc1ccc2[nH]c3c(c2c1)CCCCC3Nc1ncccn1` (centres unmarked) [Example 38, 2-Bromo-N-pyrimidin-2-yl-5,6,7,8,9,10-hexahydrocyclohepta[b]indol-6-amine], the IC50 amounted to 39 nM.
